Several values for one entry are separate records, joined by “and”; a condition that tells them apart may be missing. Equal values may be shown once.
How the values were obtained:
[1] = system: RAW 264.7 cells; test: Assay of kinase from cell lysate (GFP-cJun phosphorylation, TR-FRET); type: cell-based, mouse; conditions: duplicates
Method: RAW 264.7 cells (mouse macrophage cell line) were serum starved overnight and stimulated (or not) with 10 ug/ml of Anisomycin for 15 minutes prior to lysates being prepared. Lysates were prepared following a standard protocol, e.g., as described in the Kinase Activity Assay Kit protocol, Rev. A1 Dec. 9, 2005, Catalog#KNZ0031, BioSource (California). The protocol is outlined below.
When using the Omnia™ Lysate Assay to determine MAPKAP-K2 activity in cell lysates, the following procedure for sample preparation may be used. This protocol has been successfully applied to several cell lines of human and mouse origin. • 1. Thaw Omnia Cell Extraction Buffer (BioSource, California) on ice. • 2. Set up and stimulate cells as desired. • 3. Collect cells in cold PBS by centrifugation (for non-adherent cells) or scraping from culture plates (for adherent cells). • 4. Centrifuge the cells at 1,500 rpm for 5 minutes at 4° C. • 5. Aspirate the PBS. • 6. Resuspend the cell pellet in Omnia Cell Extraction Buffer and transfer the lysate to a 1.5 mL microcentrifuge tube. The volume of Omnia Cell Extraction Buffer depends on the cell number and expression level of MAPKAP-K2. The optimal protein concentration of lysate should be in the range of 5 to 10 mg/mL. Add an appropriate amount of protease and phosphatase inhibitor (typically provided as a 100× stock solution) before using. Under these conditions, using 0.005 mL (25-50 μg) of the clarified cell extract will be sufficient for measurement of MAPKAP-K2 activity. • 7. Lyse the cells at 4° C. for 30 minutes on a rotator. Whole cell extract can then be briefly sonicated or put through a syringe and needle if desired. • 8. Centrifuge at 13,000 rpm for 20-30 minutes at 4° C. • 9. Transfer the clarified cell extracts to clean microcentrifuge tubes. • 10. The clarified cell extract should be stored at −80° C. until ready for analysis. Avoid repeated freeze-thaw cycles. In preparation for performing the assay, allow the samples to thaw on ice. Mix well prior to analysis.
Lysate was serially diluted in buffer and 5 uL aliquots were assayed against 400 nM GFP-cJun in assay buffer containing 100 uM ATP. Assays were stopped by addition of EDTA and antibody, with a final anti-phospho cJun antibody concentration of 2 nM. The plate was read after 1 hour incubation and the data collected. Samples were performed in duplicates.

[2] = Precipitation of compounds seen in the EGFR kinase assay; type: physicochemical; conditions: EGFR kinase assay conditions
[3] = molecular target: T1, Epidermal Growth Factor Receptor (EGFR) Tyrosine Kinase (Homo sapiens, UniProt P00533); test: EGFR kinase multiplex FP/TR-RET assay (LOPAC screen and follow-up); type: biochemical; conditions: re-assayed, two-fold dilutions
T1 construct: purchased Invitrogen P2628

[4] = molecular target: T2, UCH-L3 (Homo sapiens, UniProt P15374); test: Deubiquitination TR-FRET assay with GFP-Ub-Tb, inhibitor titration; type: biochemical; conditions: 0.1 nM UCH-L3 and 10 nM GFP-Ub-Tb
T2 construct: purchased Boston Biochem E-325
T2 sequence (P15374 1-230): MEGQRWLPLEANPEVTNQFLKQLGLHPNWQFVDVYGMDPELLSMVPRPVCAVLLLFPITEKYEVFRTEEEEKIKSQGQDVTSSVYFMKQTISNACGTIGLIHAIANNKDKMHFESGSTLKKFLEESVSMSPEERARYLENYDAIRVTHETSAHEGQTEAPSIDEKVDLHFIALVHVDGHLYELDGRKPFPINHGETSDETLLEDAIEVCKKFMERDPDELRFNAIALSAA

T1 sequence (P00533 25-1210): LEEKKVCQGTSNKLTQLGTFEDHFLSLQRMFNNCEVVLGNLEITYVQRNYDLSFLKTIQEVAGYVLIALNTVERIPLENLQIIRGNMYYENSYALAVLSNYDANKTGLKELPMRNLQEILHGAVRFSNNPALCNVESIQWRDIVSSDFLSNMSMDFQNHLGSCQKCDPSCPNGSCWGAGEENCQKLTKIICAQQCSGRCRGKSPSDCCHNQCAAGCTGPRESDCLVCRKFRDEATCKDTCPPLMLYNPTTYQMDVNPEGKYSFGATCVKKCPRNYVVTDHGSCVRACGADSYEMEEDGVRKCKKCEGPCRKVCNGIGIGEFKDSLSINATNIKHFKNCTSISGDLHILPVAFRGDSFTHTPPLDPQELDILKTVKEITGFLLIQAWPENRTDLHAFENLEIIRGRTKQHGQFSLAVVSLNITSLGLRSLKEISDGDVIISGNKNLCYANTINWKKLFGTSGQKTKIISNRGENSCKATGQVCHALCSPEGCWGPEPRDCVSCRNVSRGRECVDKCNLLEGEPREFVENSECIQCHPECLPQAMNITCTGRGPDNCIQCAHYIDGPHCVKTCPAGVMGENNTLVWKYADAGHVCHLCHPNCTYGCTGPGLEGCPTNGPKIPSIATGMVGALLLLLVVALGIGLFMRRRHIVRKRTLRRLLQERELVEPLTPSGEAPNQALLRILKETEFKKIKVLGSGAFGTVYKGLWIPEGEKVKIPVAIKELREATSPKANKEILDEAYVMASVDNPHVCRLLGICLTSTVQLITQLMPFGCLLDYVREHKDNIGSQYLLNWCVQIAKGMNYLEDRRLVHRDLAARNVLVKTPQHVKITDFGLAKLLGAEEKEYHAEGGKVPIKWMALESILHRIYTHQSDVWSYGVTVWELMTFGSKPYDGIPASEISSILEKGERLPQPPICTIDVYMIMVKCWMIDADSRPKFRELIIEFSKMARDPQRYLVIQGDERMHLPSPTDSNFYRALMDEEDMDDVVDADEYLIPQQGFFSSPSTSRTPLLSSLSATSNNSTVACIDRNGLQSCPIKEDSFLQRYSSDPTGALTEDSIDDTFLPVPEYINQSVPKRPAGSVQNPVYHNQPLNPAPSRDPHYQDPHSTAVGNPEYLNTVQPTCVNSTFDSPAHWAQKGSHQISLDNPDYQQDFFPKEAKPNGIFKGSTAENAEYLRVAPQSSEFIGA

COc1ccc(C[C@H]2NC[C@H](O)[C@H]2OC(C)=O)cc1 [Anisomycin]
TR-FRET value of lysate, +Anisomycin ([1]; 10 ug/ml Anisomycin 15 minutes, 0.003051758 % Cell Lysate in 5 uL Addition): 0.1308 and 0.1312
TR-FRET value of lysate, +Anisomycin ([1]; 10 ug/ml Anisomycin 15 minutes, 0.006103516 % Cell Lysate in 5 uL Addition): 0.1395 and 0.1339
TR-FRET value of lysate, +Anisomycin ([1]; 10 ug/ml Anisomycin 15 minutes, 0.01220703 % Cell Lysate in 5 uL Addition): 0.1419 and 0.1424
TR-FRET value of lysate, +Anisomycin ([1]; 10 ug/ml Anisomycin 15 minutes, 0.02441406 % Cell Lysate in 5 uL Addition): 0.1479 and 0.1534
TR-FRET value of lysate, +Anisomycin ([1]; 10 ug/ml Anisomycin 15 minutes, 0.04882813 % Cell Lysate in 5 uL Addition): 0.1572 and 0.1894
TR-FRET value of lysate, +Anisomycin ([1]; 10 ug/ml Anisomycin 15 minutes, 0.09765625 % Cell Lysate in 5 uL Addition): 0.2161 and 0.2286
TR-FRET value of lysate, +Anisomycin ([1]; 10 ug/ml Anisomycin 15 minutes, 0.1953125 % Cell Lysate in 5 uL Addition): 0.2474 and 0.3145
TR-FRET value of lysate, +Anisomycin ([1]; 10 ug/ml Anisomycin 15 minutes, 0.390625 % Cell Lysate in 5 uL Addition): 0.2813 and 0.3421
TR-FRET value of lysate, +Anisomycin ([1]; 10 ug/ml Anisomycin 15 minutes, 0.78125 % Cell Lysate in 5 uL Addition): 0.3722 and 0.4739
TR-FRET value of lysate, +Anisomycin ([1]; 10 ug/ml Anisomycin 15 minutes, 1.5625 % Cell Lysate in 5 uL Addition): 0.4554 and 0.5687
TR-FRET value of lysate, +Anisomycin ([1]; 10 ug/ml Anisomycin 15 minutes, 3.125 % Cell Lysate in 5 uL Addition): 0.5703 and 0.707
TR-FRET value of lysate, +Anisomycin ([1]; 10 ug/ml Anisomycin 15 minutes, 6.25 % Cell Lysate in 5 uL Addition): 0.5917 and 0.7878
TR-FRET value of lysate, +Anisomycin ([1]; 10 ug/ml Anisomycin 15 minutes, 12.5 % Cell Lysate in 5 uL Addition): 0.7483 and 0.8384
TR-FRET value of lysate, +Anisomycin ([1]; 10 ug/ml Anisomycin 15 minutes, 25 % Cell Lysate in 5 uL Addition): 0.8474 and 0.8571
TR-FRET value of lysate, +Anisomycin ([1]; 10 ug/ml Anisomycin 15 minutes, 50 % Cell Lysate in 5 uL Addition): 0.9027 and 0.9226
TR-FRET value of lysate, +Anisomycin ([1]; cells stimulated with 10 ug/ml Anisomycin 15 minutes, 100 % Cell Lysate in 5 uL Addition): 0.9796 and 0.9768

CC(C)[C@@]1(NC(=O)[C@@H]2C=C3c4cccc5[nH]cc(c45)C[C@H]3N(C)C2)O[C@@]2(O)[C@@H]3CCCN3C(=O)[C@H](Cc3ccccc3)N2C1=O [Ergocristine]
precipitation in the assay [2]: seen to precipitate

Oc1ccccc1O [Pyrocatechol]
inhibitor on re-assay [3]: neither was seen to be an inhibitor

O=C1Nc2ccc(I)cc2/C1=C/c1cc(Br)c(O)c(Br)c1 [GW5074]
precipitation in the assay [2]: seen to precipitate

ubiquitin aldehyde
IC50 [4]: 0.2 nM

NC(=O)c1cc(N2CC2)c([N+](=O)[O-])cc1[N+](=O)[O-] [CB-1954]
inhibitor on re-assay [3]: neither was seen to be an inhibitor

Reference: patent publication US8642256B2, “Kinase and ubiquination assays” (Life Technologies Corporation, priority 2005, dated 2014)
